Test results published in patent US6950754B2, “Apparatus and method for automated protein design” (The California Institute of Technology, priority 1997, dated 2005).
No end group written: not given here.

Experiments:
[1] = Thermal melts monitored by circular dichroism at 222 nm (coiled coil peptides); assay type: physicochemical; settings: surface designs on GCN4-p1, pH 7.0, 40 μM
Method: A 1 mm pathlength cell was used and the temperature was controlled by a thermoelectric unit. Thermal melts were performed in the same buffer using two degree temperature increments with an averaging time of 10 s and an equilibration time of 90 s. […] Peptide concentrations were determined from the tyrosine absorbance at 275 nm (Huyghues-Despointes, et al., supra).

[2] = Size exclusion chromatography, oligomerization state (coiled coil peptides); assay type: physicochemical; settings: pH 7.0, 0° C.
Method: Size exclusion chromatography: Size exclusion chromatography was performed with a Synchropak GPC 100 column (25 cm by 4.6 mm) at pH 7.0 in 50 mM phosphate and 150 mM NaCl at 0° C. […] 10 μl injections of 1 mM peptide solution were chromatographed at 0.20 ml/min and monitored at 275 nm. Peptide concentrations were approximately 60 μM as estimated from peak heights. Samples were run in triplicate.
Size exclusion chromatography was performed with a PolyLC hydroxyethyl A column (20 cm×9 mm) at pH 7.0 in 50 mM phosphate and 150 mM NaCl at 0° C. […] 5 μl injections of ˜1 mM peptide solution were chromatographed at 0.50 ml/min and monitored at 214 nm. Samples were run in triplicate.

[3] = Circular dichroism spectra, ellipticity at 222 nm and helical content (coiled coil peptides); assay type: physicochemical; settings: 1° C., 40 μM
Method: Circular dichroism CD spectra were measured on an Aviv 62DS spectrometer at pH 7.0 in 50 mM phosphate, 150 mM NaCl and 40 μM peptide. A 1 mm pathlength cell was used and the temperature was controlled by a thermoelectric unit.
Circular dichroism spectroscopy (CD) was used to assay the secondary structure and thermal stability of the designed peptides.
The secondary structures and thermal stabilities of the peptides were assessed by circular dichroism (CD) spectroscopy.

[4] = assay type: physicochemical; settings: pH 5.5

Substance | Tm [1] | N (oligomerization state) [2] | [θ]222 [3] | limited solubility [4]
Ac-RMAALEAKVAALLAKNAALEAEVAALKALVGER-NH2 [6F] | 73 °C | – | – | –
Ac-RMARLEAKVAALLAKNRRLEREVARLKALVGER-NH2 [6C] | 69 °C | 2 | – | –
Ac-RMEKLEQKVKELLRKNERLEEEVERLKQLVGER-NH2 [6B] | 72 °C | 2 | – | –
Ac-RMRELEEKVRRLLRKNEDLEREVKRLKELVGER-NH2 [6D] | 71 °C | 2 | – | –
MTWKYIINGKTLKGETTTEIVDAATFEKVWKQYLNDNGIDGEFTYDDATKTLTITE [α70] | – | – | – | 100 µM

Second part, led by results:

Tm [1] | N (oligomerization state) [2] | [θ]222 [3] | Substance | limited solubility [4]
71 °C | 2 | – | Ac-RMEKLEDKVRELLRKNRRLEEEVRRLKELVGER-NH2 [6A] | –
15 °C | 2 | −12000 deg cm^2/dmol | Ac-RMNTLERKVAKLLSKNANLEHEVNTLKQLVGER-NH2 [6E] | –
